The values that follow come from patent US7414066B2, “Amide compounds and medications containing the same technical field” (Kowa Company Ltd., priority 1999, dated 2008).

pIC50: −log10 of the molar value.

For the first data set, the target named is T1, ACAT (enzyme solution derived from the small intestine of a rabbit).
T1 construct: An enzyme solution derived from the small intestine was prepared from the small intestine of a rabbit that had eaten a normal food
The experiment in a line: ACAT inhibitory activity, enzyme solution from rabbit small intestine. Type of data set: biochemical. The settings on record: B‡: the small intestine. As for the experimental part: A microsome was prepared from the breast aorta of a rabbit which had been fed with 1% cholesterol food for 8 weeks in a usual manner, and suspended in a 0.15 M phosphate buffer solution (pH 7.4) to form an enzyme solution. An enzyme solution derived from the small intestine was prepared from the small intestine of a rabbit that had eaten a normal food.
To this solution were added 10 μl of the enzyme solution, and the mixture was reacted at 37° C. for 5 minutes (for 3 minutes in the case of the small intestine). Then, 3 ml of a chloroform/methanol (2/1) mixture and 0.5 ml of 0.04 N hydrochloric acid were added thereto to stop the reaction. The lipid was then extracted. The solvent layer was concentrated to dryness, and dissolved in hexane. The solution was spotted on a TLC plate(supplied by Merck Co.). The elution was conducted with a hexane:ether:acetic acid (75:25:1) mixture.
The radioactivity of the resulting cholesterol ester fraction was measured using BAS 2000 (supplied by Fuji Photo Film Co., Ltd.). An IC50 value was obtained from the calculation in contrast with a control containing only DMSO.
With `CCCCCCCN(CCCCCSc1nc(-c2ccccc2)c(-c2ccccc2)[nH]1)c1nc2ccccc2o1` [Control 4, [5-(4,5-diphenyl-1H-imidazol-2-ylthio)pentyl]-N-heptyl-2-benzoxazolamie, reference compound], the pIC50 – broadly, the IC50 on a negative log10 scale, so that one unit is a factor of ten – is 7.43.

For another data set, the system named is J774 cells. The experiment in a line: ACAT inhibitory activity (anti-foamation activity) in J774 cells. Type of data set: cell-based. The settings on record: Mus musculus; J774 cells, 25-OH cholesterol 10 μg/ml, 18 hours; read-out: Enzyme (J774) IC50. The protocol: J774 cells or HepG2 cells were spread on a 24-well plate. The cells were incubated in a 5% CO2 incubator at 37° C. for 24 hours using DMEM in the case of the J774 cells and a MEM culture solution in the case of the HepG2 cells (both containing 10% fetal calf serum).
The medium was removed, and the residue was washed twice with PBS, then extracted with 1.5 ml of a hexane:isopropanol (3:2) mixture, and concentrated to dryness. The extract was dissolved in 0.2 ml of isopropanol containing 10% Triton X-100. Total cholesterol (TC) and free cholesterol (FC) were measured using Cholesterol E Test Wako (supplied by Wako Pure Chemical Industries, Ltd.) and Free Cholesterol E Test Wako (supplied by Wako Pure Chemical Industries, Ltd.).
The cell extract residue was solubilized in 0.25 ml of 2N NaOH at 37° C. for 30 minutes, and the protein amount was measured using BCA Protein Assay Reagent (Pierce).
The amount of cholesterol based on the protein was calculated from the difference between TC and FC, and an IC50 value was obtained from the calculation in contrast with the control.
For `CCCCCCCN(CCCCCSc1nc(-c2ccccc2)c(-c2ccccc2)[nH]1)c1nc2ccccc2o1` [Control 4, [5-(4,5-diphenyl-1H-imidazol-2-ylthio)pentyl]-N-heptyl-2-benzoxazolamie, reference compound], the pIC50 is 6.92.

Tested on in another data set: not given
Assay: not given
Conditions: not given
With `CSc1cc(C)nc(SC)c1NC(=O)CCCCCSc1nc2ccccc2[nH]1` [compound 805, 6-(benzimidazol-2-ylthio)-N-[2,4-bis(methylthio)-6-methyl-3-pyridyl]hexanamide], the melting point – broadly, the temperature of the solid-liquid transition – lay within 139 to 141 °C.
Molecule `CSc1cc(C)nc(SC)c1NC(=O)CCCCSc1nc2ccccc2s1` [Compound No. 794, 5-(benzothiazol-2-ylthio)-N-(2,4-bis(methylthio)-6-methyl-3-pyridyl)pentanamide] had a melting point of 121 to 123 °C.
For `CCSc1cc(C)nc(SCC)c1NC(=O)CCCCSc1nc2c(C)c(Cl)cc(C(C)C)c2o1` [Compound No. 1280, 5-(5-chloro-7-isopropyl-4-methylbenzoxazol-2-ylthio)-N-[2,4-bis(ethylthio)-6-methyl-3-pyridyl]pentanamide], the melting point was in the range of 141 to 142 °C.
The molecule `CSc1cc(C)nc(SC)c1NC(=O)CSc1nc2ccccc2s1` [Compound No. 791, 2-(benzothiazol-2-ylthio)-N-[2,4-bis(methylthio)-6-methyl-3-pyridyl)acetamide] registered a melting point of 178 to 179 °C.
As for `CCSc1cc(C)nc(SCC)c1NC(=O)CSc1nc2ccccc2o1` [compound 811, 2-(benzoxazol-2-ylthio)-N-[2,4-bis(ethylthio)-6-methyl-3-pyridyl]acetamide], the melting point lay in the range of 143 to 145 °C.
Still for that read-out and setting: with `COC(=O)c1cccc2nc(SCCCCCC(=O)Nc3c(SC)cc(C)nc3SC)oc12` [Compound No. 1238, 6-(7-methoxycarbonylbenzoxazol-2-ylthio)-N-[2,4-bis(methylthio)-6-methyl-3-pyridyl]hexanamide] the figure was 141 to 142 °C; with `CCSc1cc(C)nc(SCC)c1NC(=O)CCCCCCSc1nc2c(C)c(Cl)cc(C(C)C)c2o1` [Compound No. 1282, 7-(5-chloro-7-isopropyl-4-methylbenzoxazol-2-ylthio)-N-[2,4-bis(ethylthio)-6-methyl-3-pyridyl]heptanamide], 117 to 120 °C.
Take `CCSc1cc(C)nc(SCC)c1NC(=O)CCCCCCSc1nc2ccccc2s1` [Compound No. 826, 7-(benzothiazol-2-ylthio)-N-[2,4-bis(ethylthio)-6-methyl-3-pyridyl]heptanamide]: the melting point was in the range of 114 to 116 °C.
Same read-out and setting: with `Cc1cc(SC(C)C)c(NC(=O)CCCCCSc2nc3ccccc3s2)c(SC(C)C)n1` [Compound No. 855, 6-(benzothiazol-2-ylthio)-N-[2,4-bis(isopropylthio)-6-methyl-3-pyridyl]hexanamide] the figure was 84 to 86 °C; with `CCSc1cc(C)nc(SCC)c1NC(=O)CCCCCCSc1nc2cccc(C(F)(F)F)c2o1` [Compound No. 1272, 7-(7-trifluoromethylbenzoxazol-2-ylthio)-N-[2,4-bis(ethylthio)-6-methyl-3-pyridyl]heptanamide], 127 to 128 °C.
In turn, `CSc1cc(C)nc(SC)c1NC(=O)CCCCCCSc1nc2ccccc2o1` [Compound No. 786, 7-(benzoxazol-2-ylthio)-N-[2,4-bis(methylthio)-6-methyl-3-pyridyl]heptanamide] gave a melting point of 137 to 139 °C.
`CCSc1cc(C)nc(SCC)c1NC(=O)CSc1nc2cccc(S(C)(=O)=O)c2o1` [Compound No. 1317, 2-(7-methansulfonylbenzoxazol-2-ylthio)-N-[2,4-bis(ethylthio)-6-methyl-3-pyridyl]acetamide] came in with a melting point of 159 to 162 °C.
For `CSc1nc(C)ccc1NC(=O)CCCCCSc1nc2ccccc2o1` [compound 455, 6-(benzoxazol-2-ylthio)-N-(6-methyl-2-methylthio-3-pyridyl)hexanamide], the melting point lay within 140 to 141 °C.
For `CSc1nc(C)ccc1NC(=O)CSc1nc2ccccc2[nH]1` [Compound No. 471, 2-(benzimidazol-2-ylthio)-N-(6-methyl-2-methylthio-3-pyridyl)acetamide], the melting point was 192 to 193 °C (dec.).
`CCSc1cc(C)nc(SCC)c1NC(=O)CCCCCCCSc1nc2cccc(C(F)(F)F)c2o1` [Compound No. 1273, 8-(7-trifluoromethylbenzoxazol-2-ylthio)-N-[2,4-bis(ethylthio)-6-methyl-3-pyridyl]octanamide] showed a melting point of 99 to 100 °C.
For `CCSc1cc(C)nc(SCC)c1NC(=O)CSc1nc2ccccc2s1` [compound 821, 2-(benzothiazol-2-ylthio)-N-[2,4-bis(ethylthio)-6-methyl-3-pyridyl]acetamide], the melting point fell in the range of 119 to 120 °C.
In turn, `CSc1cc(C)nc(SC)c1NC(=O)CCCCCCSc1nc2cccc(C(F)(F)F)c2o1` [Compound No. 1252, 7-(7-trifluoromethylbenzoxazol-2-ylthio)-N-[2,4-bis(methylthio)-6-methyl-3-pyridyl]heptanamide] yielded a melting point of 129 to 131 °C.
The same measure, in the same setting: to `CCSc1cc(C)nc(SCC)c1NC(=O)CCCCCCCCSc1nc2cccc(C(F)(F)F)c2o1` [Compound No. 1274, 9-(7-trifluoromethylbenzoxazol-2-ylthio)-N-[2,4-bis(ethylthio)-6-methyl-3-pyridyl]nonanamide] belongs 115 to 116 °C.
Still for that read-out and setting: with `CCSc1cc(C)nc(SCC)c1NC(=O)CCCCSc1nc2ccccc2o1` [Compound No. 814, 5-(benzoxazol-2-ylthio)-N-[2,4-bis(ethylthio)-6-methyl-3-pyridyl]pentanamide] the figure was 122 to 123 °C; with `Cc1cc(SC(C)C)c(NC(=O)CCCCCSc2nc3ccccc3[nH]2)c(SC(C)C)n1` [Compound No. 865, 6-(benzimidazol-2-ylthio)-N-[2,4-bis(isopropylthio)-6-methyl-3-pyridyl]hexanamide], 175 to 176 °C.
On the same count and under the same terms, to `CCSc1cc(C)nc(SCC)c1NC(=O)CCCCCCSc1nc2ccccc2o1` [Compound No. 816, 7-(benzoxazol-2-ylthio)-N-[2,4-bis(ethylthio)-6-methyl-3-pyridyl]heptanamide] belongs 103 to 105 °C; to `CCSc1cc(C)nc(SCC)c1NC(=O)CCCCSc1nc2ccccc2s1` [Compound No. 824, 5-(benzothiazol-2-ylthio)-N-[2,4-bis(ethylthio)-6-methyl-3-pyridyl]pentanamide], 102 to 104 °C; to `Cc1cc(SC(C)C)c(NC(=O)CCCSc2nc3c(C)c(Cl)cc(C(C)C)c3o2)c(SC(C)C)n1` [Compound No. 1299, 4-(5-chloro-7-isopropyl-4-methylbenzoxazol-2-ylthio)-N-[2,4-bis(isopropylthio)-6-methyl-3-pyridyl]butanamide], 141 to 143 °C.
Regarding `Cc1cc(SC(C)C)c(NC(=O)CCCCSc2nc3ccccc3[nH]2)c(SC(C)C)n1` [Compound No. 864, 5-(benzimidazol-2-ylthio)-N-[2,4-bis(isopropylthio)-6-methyl-3-pyridyl]pentanamide], the melting point is 175 to 176 °C.
`CCSc1cc(C)nc(SCC)c1NC(=O)CCCSc1nc2cccc(C(F)(F)F)c2o1` [Compound No. 1269, 4-(7-trifluoromethylbenzoxazol-2-ylthio)-N-[2,4-bis(ethylthio)-6-methyl-3-pyridyl]butanamide] gave a melting point of 148 to 150 °C.
The same measure, in the same setting: with `Cc1cc(SC(C)C)c(NC(=O)CCCCCCSc2nc3ccccc3o2)c(SC(C)C)n1` [Compound No. 846, 7-(benzoxazol-2-ylthio)-N-[2,4-bis(isopropylthio)-6-methyl-3-pyridyl]heptanamide] the figure was 76 to 78 °C; with `Cc1cc(SC(C)C)c(NC(=O)CCCSc2nc3ccccc3o2)c(SC(C)C)n1` [compound 843, 4-(benzoxazol-2-ylthio)-N-[2,4-bis(isopropylthio)-6-methyl-3-pyridyl]butanamide], 128 to 129 °C.
The molecule `CSc1cc(C)nc(SC)c1NC(=O)CCCCCCCSc1nc2cccc(C(F)(F)F)c2o1` [Compound No. 1253, 8-(7-trifluoromethylbenzoxazol-2-ylthio)-N-[2,4-bis(methylthio)-6-methyl-3-pyridyl]octanamide] returned a melting point of 115 to 116 °C.
On the same count and under the same terms, to `CCSc1cc(C)nc(SCC)c1NC(=O)CCCCCCCSc1nc2c(C)c(Cl)cc(C(C)C)c2o1` [Compound No. 1283, 8-(5-chloro-7-isopropyl-4-methylbenzoxazol-2-ylthio)-N-[2,4-bis(ethylthio)-6-methyl-3-pyridyl]octanamide] belongs 82 to 84 °C.
